Tests used:
Leishmania donovani = experiment: Antileishmanial activity against Leishmania donovani MHOM-ET-67/L82 amastigotes by microplate assay; assay type: functional, organism-based
[1] = tested on: Trypanosoma brucei rhodesiense; experiment: Antitrypanosomal activity against Trypanosoma brucei rhodesiense STIB900 trypomastigotes by microplate assay; assay type: functional, organism-based
Trypanosoma cruzi = experiment: Antitrypanosomal activity against Trypanosoma cruzi Tulahuen C4 amastigotes by microplate assay; assay type: functional, organism-based
L6 = experiment: Cytotoxicity against rat L6 cells; assay type: cell-based
[2] = Selectivity index, ratio of IC50 for rat L6 cells to IC50 for Leishmania donovani MHOM-ET-67/L82; assay type: functional, cell-based
[3] = Selectivity index, ratio of IC50 for rat L6 cells to IC50 for Trypanosoma cruzi Tulahuen C4; assay type: functional, cell-based
[4] = Selectivity index, ratio of IC50 for rat L6 cells to IC50 for Trypanosoma brucei rhodesiense STIB900; assay type: functional, cell-based

Row | SMILES | IC50 (Leishmania donovani) | IC50 [1] | IC50 (Trypanosoma cruzi) | IC50 (L6) | selectivity index [2] | selectivity index [3] | selectivity index [4]
1 | O=C1C=C(Oc2ccccc2)C(=O)c2ccccc21 | 1.26 µM | 0.08 µM | 1.26 µM | 5.92 µM | 4.69 | 4.7 | 74
2 | O=C1C=C(Oc2ccc(F)cc2F)C(=O)c2ccccc21 | 2.29 µM | 0.39 µM | 5 µM | 5.51 µM | 2.41 | 1.1 | 14.2
3 | Cc1ccc(OC2=CC(=O)c3ccccc3C2=O)cc1Br | 0.92 µM | 0.3 µM | 2.88 µM | 4.92 µM | 5.34 | 1.71 | 16.4
4 | O=C1C=C(Oc2ccc(Br)cc2Br)C(=O)c2ccccc21 | 2.37 µM | 0.51 µM | 34.3 µM | 28.5 µM | 12.1 | 0.83 | 55.7
5 | O=C1C=C(Oc2ccc(Cl)cc2Cl)C(=O)c2ccccc21 | 1.32 µM | 0.29 µM | 5.95 µM | 5.18 µM | 3.94 | 0.87 | 17.8
6 | Cc1ccc(OC2=CC(=O)c3ccccc3C2=O)c(C)c1 | 0.51 µM | 0.22 µM | 2.47 µM | 5.26 µM | 10.3 | 2.13 | 24.4
7 | O=C1C=C(Oc2ccc(Cl)cc2F)C(=O)c2cc3ccccc3cc21 | 0.53 µM | 0.21 µM | 21.5 µM | 2.64 µM | 5.01 | 0.12 | 12.4
8 | O=C1C=C(Oc2ccc(F)cc2Br)C(=O)c2ccccc21 | 1.81 µM | 0.36 µM | 3.74 µM | 4.66 µM | 2.58 | 1.25 | 13.1
9 | O=C1C=C(Oc2ccc(Cl)cc2F)C(=O)c2ccccc21 | 0.7 µM | 0.37 µM | 4.43 µM | 4.58 µM | 6.54 | 1.03 | 12.5
10 | O=C1C=C(Oc2ccc(Cl)cc2Cl)C(=O)c2cc3ccccc3cc21 | 0.49 µM | 0.065 µM | 13.7 µM | 2.01 µM | 4.15 | 0.15 | 31
11 | Cc1ccc(OC2=CC(=O)c3cc4ccccc4cc3C2=O)c(C)c1 | 0.55 µM | 0.31 µM | 22.5 µM | 4.13 µM | 7.53 | 0.18 | 13.2

These reach a lower IC50 (Leishmania donovani). Values come first.

Row | IC50 (Leishmania donovani) | IC50 [1] | IC50 (Trypanosoma cruzi) | SMILES | IC50 (L6) | selectivity index [2] | selectivity index [3] | selectivity index [4]
12 | 0.47 µM | 0.14 µM | 16.4 µM | O=C1C=C(Oc2ccc(Br)cc2Br)C(=O)c2cc3ccccc3cc21 | 2.19 µM | 4.71 | 0.13 | 15.4
13 | 0.31 µM |  |  | CCCCCCCCCCCCCCCCOP(=O)([O-])OCC[N+](C)(C)C [MILTEFOSINE] |  |  |  | 
14 | 0.34 µM | 0.05 µM | 4.66 µM | O=C1C=C(Oc2ccccc2)C(=O)c2cc3ccccc3cc21 | 1 µM | 2.94 | 0.21 | 20
15 | 0.36 µM | 0.15 µM | 6.36 µM | Cc1ccc(OC2=CC(=O)c3cc4ccccc4cc3C2=O)cc1Br | 2.56 µM | 7.1 | 0.4 | 17.4
16 | 0.35 µM | 0.08 µM | 2.87 µM | O=C1C=C(Oc2ccc(F)cc2Br)C(=O)c2cc3ccccc3cc21 | 1.13 µM | 3.24 | 0.39 | 14.1
17 | 0.28 µM | 0.24 µM | 7.14 µM | O=C1C=C(Oc2ccc(F)cc2F)C(=O)c2cc3ccccc3cc21 | 1.98 µM | 7.01 | 0.28 | 8.43

Source: ChEMBL document CHEMBL1141548, “Synthesis of a small library of 2-phenoxy-1,4-naphthoquinone and 2-phenoxy-1,4-anthraquinone derivatives bearing anti-trypanosomal and anti-leishmanial activity” (Bioorg Med Chem Lett, 2008)
